# Like-named read-outs stand apart in the source and are kept apart here.
# Tests used:
# [1] = system: U118-MG human brain astroblastoma cell strain; experiment: Anti-proliferation activity of ACT001 at different radiation doses (CCK-8); type: cell-based; settings: ACT001 20 μM; for inhibition at 20 µM: Homo sapiens, U-118-MG, U118-MG cells, read-out: Inhibition rate (%) at different radiation doses
# Procedure: The culture medium for U118-MG was DMEM, and the cells were cultured in a cell incubator at 37° C. with 5% CO2.
# Recover of U118-MG cells: a cryopreservation tube was taken from liquid nitrogen, placed in water bath at 37° C. to thaw the cryopreservation solution, and centrifuged at 1000 rpm for 5 min. The supernatant was discarded, and the cells were resuspended in a complete culture medium and cultured under the condition of 37° C., 5% CO2.
# (§1) When 70-80% of the bottom of the culture flask was covered by the cells, the culture medium was discarded by pipetting. The cells were washed with 2-3 mL of PBS buffer and digested with 1-2 mL of 0.25% pancreatin (just enough to cover the bottom of the flask). Immediately after the cell became round after being cultured in the incubator for a period of time, a complete culture medium was added to stop the digestion, and the cell suspensions after the digestion were combined and centrifuged at 1000 rpm for 5 min. The supernatant was discarded, and the cells were resuspended in a complete culture medium, gently pipetted, and counted. The cell density was adjusted to 2500 cells/well, and the cells were seeded into a 96-well plate at 90 μL/well.
# Dosing was performed one day after the cells were seeded. Each plate was divided into a blank group, a negative control group and 10 compound groups, with 4-6 duplicate wells set for each group. 10 μL of the compound was added to each well. 3 h later, each well received a corresponding radiation dose. The cells were cultured at 37° C. for 24 h. After that, the culture medium was discarded, a corresponding fresh culture medium was added, and the plate was incubated for 48 h. At the end of incubation, 10 μL of CCK-8 solution (taking care not to create air bubbles in the wells, which would affect the OD readings) was added to each well, and the plate was incubated in the incubator for 1-4 h. The OD value at 450 nm was determined with a microplate reader.
# The data were processed with an EXCEL software to solve inhibition rates at different concentrations, and IC50 values were obtained by fitting with SPSS. The mean and standard deviation of the IC50 values obtained three times were solved by SPSS.
# Inhibition rate %={1−(OD value of compound well−OD value of blank well)/(OD value of control well−OD value of blank well)}×100%
# BALB/c mice [2] = experiment: Effect of ACT001 on radiation-induced neuronal apoptosis of mice (Tunel staining of whole brain); type: in vivo; settings: ACT001 200 mg/kg intragastrically + brain radiation 2 Gy × 4 or single 4 Gy, day 14, Tunel staining, FIG. 7
# From the text: (§2) 2.3 Experimental Animal and Feeding Conditions • Adult BALB/c mice, 18-19 g, 8 weeks, female, SPF (Beijing) Biotechnology Co., Ltd., animal certificate number: SCXK (Beijing) 2019-0010. The test animals were bred in the barrier environment of the experimental animal center of the Institute of Radiation Medicine, Chinese Academy of Medical Sciences, with 5 animals in each cage. The padding was autoclaved special padding for mice, and the mice were fed with special sterilized feed, and were free to drink purified water. In the animal laboratory, the temperature was kept at about 25° C., the relative humidity was kept at 40%-70%, and the illumination was provided for 12 h daily. 3. Experimental procedures and compound treatment
# 3.1 Administration Method • ACT001 (dissolved in sterile normal saline) was administered intragastrically once daily; an equal volume of sterile normal saline was administered to the model control group; • The compound for each group was prepared freshly prior to use.
# 3.2 Experimental Grouping • (1) Model control group • (2) Radiotherapy control group (4 Gy) • (3) ACT001-200 mg/kg group • (4) ACT001-200 mg/kg+4 Gy group • (5) Radiotherapy low-dose control group (2 Gy) • (6) ACT001-200 mg/kg+2 Gy group • 10 animals in each group, 60 animals in total.
# The mice were randomly grouped, with 10 mice in each group. […]
# [3] = system: SYSY human neuroblastoma cell strain; experiment: Alleviation of radiation-induced neuronal cell death (CCK-8); type: cell-based; settings: ACT001 1.25-10 μM, 0-10 Gy, radiation 1 h after dosing, 48 h, FIG. 6
# Procedure: The culture medium for SYSY cells was DMEM, and the cells were cultured in a cell incubator at 37° C. with 5% CO2.
# Recover of SYSY cells: a cryopreservation tube was taken from liquid nitrogen, placed in water bath at 37° C. to thaw the cryopreservation solution, and centrifuged at 1000 rpm for 5 min. The supernatant was discarded, and the cells were resuspended in a complete culture medium and cultured under the condition of 37° C., 5% CO2.
# as §1, with “culture dish” for “culture flask”, “was discarded.” for “was discarded by pipetting.”, “with 1” for “with 1-2”, “counted. […]” for “counted. The cell density was adjusted to 2500 cells/well, and the cells were seeded into a 96-well plate at 90 μL/well.”
# (§3) Dosing was performed 24 h after the cells were seeded. […] 10 μL of CCK-8 solution (taking care not to create air bubbles in the wells, which would affect the OD readings) was added to each well, and the plate was incubated in the incubator for 1-4 h. The OD value at 450 nm was determined with a microplate reader.
# [4] = system: BEAS2B human normal lung epithelial cell strain; experiment: Selective radiotherapy protection effect on normal cells (CCK-8), normal lung epithelial cells; type: cell-based; settings: ACT001 10 μM, 0-6 Gy, radiation 1 h after dosing, 48 h, FIG. 5
# Procedure: (§4) The culture medium for H226 and BEAS2B cells was DMEM, and the cells were cultured in a cell incubator at 37° C. with 5% CO2.
# (§5) Recover of H226 and BEAS2B cells: a cryopreservation tube was taken from liquid nitrogen, placed in water bath at 37° C. to thaw the cryopreservation solution, and centrifuged at 1000 rpm for 5 min.
# (§6) The supernatant was discarded, and the cells were resuspended in a complete culture medium and cultured under the condition of 37° C., 5% CO2.
# as §1, with “culture dish” for “culture flask”, “was discarded.” for “was discarded by pipetting.”, “with 1” for “with 1-2”, “counted. […]” for “counted. The cell density was adjusted to 2500 cells/well, and the cells were seeded into a 96-well plate at 90 μL/well.”
# as §3
# [5] = system: H226 human squamous lung carcinoma cell strain; experiment: Selective radiotherapy protection effect (CCK-8), lung cancer cells; type: cell-based; settings: ACT001 10 μM, 0-6 Gy, radiation 1 h after dosing, 48 h, FIG. 5
# Procedure: as §4, §5, §6
# as §1, with “culture dish” for “culture flask”, “was discarded.” for “was discarded by pipetting.”, “with 1” for “with 1-2”, “counted. […]” for “counted. The cell density was adjusted to 2500 cells/well, and the cells were seeded into a 96-well plate at 90 μL/well.”
# as §3
# BALB/c mice [6] = experiment: Effect of ACT001 on survival of mice subjected to radiotherapy; type: in vivo
# From the text: as §2, with “Adult” for “2.3 Experimental Animal and Feeding Conditions • Adult”, “2016-0002.” for “2019-0010.”, “common” for “barrier”, “daily.” for “daily. 3. Experimental procedures and compound treatment”
# In a preliminary experiment of radiation dose exploration, mice were subjected to radiation at 8 Gy, 10 Gy, 12 Gy, and 14 Gy, respectively. All animals died 18 days after the radiation. However, the animals in the 8 Gy group survived longer than the other groups, so the radiation dose of 8 Gy was selected for the formal experiment.
# 3.1 Experimental Procedures • (1) The lethal dose of a single radiation of mice was determined through a preliminary experiment; (2) the mice were randomly grouped by the body weight; • (3) ACT001 was pre-administered for 17 consecutive days, and the state of the animals was observed and the body weight was measured daily; • (4) the mice in groups (3) and (4) were subjected to radiation at a lethal dose after 17 days of the administration, and on the day of radiation, ACT001 was administered 1 h before the radiation; • (5) ACT001 was continuously administered for five weeks after the radiation, and the survival state of the animals was observed and the body weight was measured daily. The survival rate and survival time of mice in each group were calculated.
# 3.2 Grouping Regimen • (1) Blank control group • (2) ACT001-200 mg/kg group • (3) Radiotherapy-8 Gy group • (4) ACT001-200 mg/kg+radiotherapy-8 Gy group
# A total of 4 groups were set in the experiment, with 10 animals in each group.
# 3.3 Administration Method • ACT001 (dissolved in normal saline) was administered intragastrically once daily, with an interruption once a week; • an equal volume of normal saline was administered intragastrically to the blank control group.
# Data were expressed as x±s; statistical analysis among groups was performed using the t-test program in EXCEL software, and the logrank chi-square test method was used to evaluate whether there was statistical significance in each group of dead animals.
smiles,measurement,setting,value
"CC1=C2CC[C@@](C)(O)[C@@H]2[C@H]2OC(=O)[C@@H](CN(C)C)[C@@H]2CC1.O=C(O)/C=C/C(=O)O [ACT001, (3R,3aS,9R,9aS,9bS)-3-((dimethylamino)methyl)-9-hydroxy-6,9-dimethyl-3,3a,4,5,7,8,9,9a-octahydroazuleno[4,5]furan-2(9bH)-one fumarate]",Effect on the inhibition by radiation of the proliferation of U118-MG cells,[1]; FIG. 1,significantly enhance the inhibition effect of the radiation group
same,inhibition at 20 µM,[1]; 0 Gy,19.2%
same,inhibition at 20 µM,[1]; 6 Gy,22.8%
same,inhibition at 20 µM,[1]; 10 Gy,33.8%
same,inhibition at 20 µM,[1]; 20 Gy,36.1%
same,inhibition at 20 µM,[1]; 50 Gy,75.6%
same,Apoptosis of neurons in the cerebral cortex compared with radiation-only groups,BALB/c mice [2],significantly reduce the apoptosis of neurons
same,Effect on injuries of SYSY cells caused by radiation,[3],significantly reduce the injuries of SYSY cells caused by radiation
same,Effect on radiotherapy-induced injuries of BEAS2B cells,[4],significantly reduce radiotherapy-induced injuries of BEAS2B cells
same,Protection effect on H226 tumor cells against radiation,[5],no protection effect on H226 tumor cells
same,Day on which animal death occurred,BALB/c mice [6]; ACT001 200 mg/kg + radiotherapy 8 Gy group,15 days
same,Survival time compared with the radiotherapy control-8 Gy group,"BALB/c mice [6]; ACT001 200 mg/kg + radiotherapy 8 Gy, P<0.01",significantly prolonged
same,State and body weight of animals during pre-administration,"BALB/c mice [6]; ACT001 200 mg/kg intragastrically, 17 consecutive days before radiotherapy",in good state with stable body weight
same,Survival rate (%),"BALB/c mice [6]; ACT001 200 mg/kg p.o. × 49 + systemic radiotherapy 8 Gy × 1, BALB/c mice",70%
same,Body weight (g) End,"BALB/c mice [6]; ACT001 200 mg/kg p.o. × 49 + systemic radiotherapy 8 Gy × 1, x ± s",18.5 ± 2.9 g
same,Survival rate (%),"BALB/c mice [6]; ACT001 200 mg/kg p.o. × 49, no radiotherapy, BALB/c mice",100%
same,Body weight (g) End,"BALB/c mice [6]; ACT001 200 mg/kg p.o. × 49, no radiotherapy, x ± s",19.1 ± 3.0 g

# From patent US20230398092A1, “APPLICATION OF SESQUITERPENE LACTONE COMPOUND IN PREPARATION OF DRUGS FOR ALLEVIATING RADIOTHERAPY-INDUCED INJURIES” (ACCENDATECH CO., LTD., priority 2020, published 2023)
